Here are results for 15 compounds from patent publication US11440910B2, “Pesticidally active heterocyclic derivatives with sulfur containing substituents” (SYNGENTA PARTICIPATIONS AG, priority 2017, dated 2022).

Data set [1] relates to Euschistus heros (Neotropical brown stink bug). In words: Example B8: Euschistus heros, soybean leaves sprayed. The format is in vivo. Particulars: 120 h, application rate 200 ppm, N2 nymphs, 5 days after infestation, read-out: effect in at least one of the two categories (mortality or growth inhibition). Here is the method: Example B8: Euschistus Heros (Neotropical Brown Stink Bug)
Soybean leaves on agar in 24-well microtiter plates were sprayed with aqueous test solutions prepared from 10′000 ppm DMSO stock solutions. After drying the leaves were infested with N2 nymphs. The samples were assessed for mortality and growth inhibition in comparison to untreated samples 5 days after infestation.

The subject of data set [2] is Plutella xylostella (Diamond back moth). In words: Example B3: Plutella xylostella, artificial diet. The format is in vivo. Particulars: 120 h, application rate 200 ppm, L2 larvae, 5 days after infestation, read-out: effect in at least one of the two categories (mortality or growth inhibition). The method, then:
Example B3: Plutella Xylostella (Diamond Back Moth)
24-well microtiter plates with artificial diet were treated with aqueous test solutions prepared from 10′000 ppm DMSO stock solutions by pipetting. After drying, the plates were infested with L2 larvae (10 to 15 per well). The samples were assessed for mortality and growth inhibition in comparison to untreated samples 5 days after infestation.

For data set [3], the system named is Myzus persicae (Green peach aphid). In words: Example B6: Myzus persicae, roots of pea seedlings in test solution. Particulars: 144 h, test rate 24 ppm, mixed ages, 6 days after placing seedlings into test solutions. The format is in vivo. The method, then: Example B6: Myzus Persicae (Green Peach Aphid)
Roots of pea seedlings infested with an aphid population of mixed ages were placed directly into aqueous test solutions prepared from 10′000 DMSO stock solutions. The samples were assessed for mortality 6 days after placing seedlings into test solutions.

In data set [4] the test system is Diabrotica balteata (Corn root worm). In words: Example B4: Diabrotica balteata, maize sprouts sprayed. The format is in vivo. Particulars: 96 h, application rate 200 ppm, L2 larvae, 4 days after infestation, read-out: effect in at least one of the two categories (mortality or growth inhibition). Here is the method:
Example B4: Diabrotica Balteata (Corn Root Worm)
Maize sprouts placed onto an agar layer in 24-well microtiter plates were treated with aqueous test solutions prepared from 10′000 ppm DMSO stock solutions by spraying. After drying, the plates were infested with L2 larvae (6 to 10 per well). The samples were assessed for mortality and growth inhibition in comparison to untreated samples 4 days after infestation.

The test system of data set [5] is Myzus persicae (Green peach aphid). In words: Example B5: Myzus persicae, sunflower leaf discs sprayed. Particulars: foliar, 144 h, application rate 200 ppm, mixed ages, 6 days after infestation. It is filed as in vivo. The method, then: Example B5: Myzus Persicae (Green Peach Aphid)
Sunflower leaf discs were placed onto agar in a 24-well microtiter plate and sprayed with aqueous test solutions prepared from 10′000 ppm DMSO stock solutions. After drying, the leaf discs were infested with an aphid population of mixed ages. The samples were assessed for mortality 6 days after infestation.

The subject of data set [6] is Bemisia tabaci (Cotton white fly). In words: Example B7: Bemisia tabaci, cotton leaf discs sprayed. The format is in vivo. Particulars: foliar, 144 h, application rate 200 ppm, adult white flies, 6 days after incubation. Here is the method: Example B7: Bemisia Tabaci (Cotton White Fly)
Cotton leaf discs were placed on agar in 24-well microtiter plates and sprayed with aqueous test solutions prepared from 10′000 ppm DMSO stock solutions. After drying the leaf discs were infested with adult white flies. The samples were checked for mortality 6 days after incubation.

The test system of data set [7] is Spodoptera littoralis (Egyptian cotton leaf worm). In words: Example B1: Spodoptera littoralis, cotton leaf discs sprayed. The format is in vivo. The note with it: foliar, 72 h, application rate 200 ppm, L1 larvae, 3 days after infestation, read-out: control (at least one of mortality, anti-feedant effect, growth inhibition). Here is the method: Example B1: Spodoptera Littoralis (Egyptian Cotton Leaf Worm)
Cotton leaf discs were placed onto agar in 24-well microtiter plates and sprayed with aqueous test solutions prepared from 10′000 ppm DMSO stock solutions. After drying the leaf discs were infested with five L1 larvae. The samples were assessed for mortality, anti-feeding effect, and growth inhibition in comparison to untreated samples 3 days after infestation. Control of Spodoptera littoralis by a test sample is given when at least one of the categories mortality, anti-feedant effect, and growth inhibition is higher than the untreated sample.

Consider `CCOC(=O)C(C)(C#N)c1cnc(-c2nc3cc(C(F)(F)F)ncc3n2C)c(S(=O)(=O)CC)c1` (stereo not drawn) [Compound P9, ethyl 2-cyano-2-[5-ethylsulfonyl-6-[3-methyl-6-(trifluoromethyl)imidazo[4,5-c]pyridin-2-yl]-3-pyridyl]propanoate], for which the percent effect (mortality or growth inhibition) at 200 ppm in data set [1] and in data set [2] was at least 80% each time.

By mortality is commonly meant the percentage killed. A low value points to more survivors. For the compound `CCS(=O)(=O)c1cc(C(C)(C)C#N)cnc1-c1nc2cc(Br)ncc2n1C` [Compound P19, 2-[6-(6-bromo-3-methyl-imidazo[4,5-c]pyridin-2-yl)-5-ethylsulfonyl-3-pyridyl]-2-methyl-propanenitrile], in data set [1], the percent effect (mortality or growth inhibition) at 200 ppm was at least 80%. This compound also showed a mortality at 24 ppm in data set [3] of at least 80%.

With `CCSc1cc(C(C)C#N)ccc1-c1nc2cc(C(F)(F)F)nnc2n1C` (stereo not drawn) [Compound P13, 2-[3-ethylsulfanyl-4-[7-methyl-3-(trifluoromethyl)imidazo[4,5-c]pyridazin-6-yl]phenyl]propanenitrile], in data set [1], the percent effect (mortality or growth inhibition) at 200 ppm is at least 80%.

As usually defined, the melting point is the temperature of the solid-liquid transition. With `CCS(=O)(=O)c1cc(C(C)(C)C#N)cnc1-c1nc2cc(C(F)(F)C(F)(F)F)ncc2n1C` [Compound P20, 2-[5-ethylsulfonyl-6-[3-methyl-6-(1,1,2,2,2-pentafluoroethyl)imidazo[4,5-c]pyridin-2-yl]-3-pyridyl]-2-methyl-propanenitrile], the melting point was in the range of 212 to 213 °C.

For the compound `CCC(C#N)(CC)c1cnc(-c2nc3cc(C(F)(F)F)ncc3n2C)c(S(=O)(=O)CC)c1` [Compound P3, 2-ethyl-2-[5-ethylsulfonyl-6-[3-methyl-6-(trifluoromethyl)imidazo[4,5-c]pyridin-2-yl]-3-pyridyl]butanenitrile], the percent effect (mortality or growth inhibition) at 200 ppm in data set [4] and in data set [2] was at least 80% throughout.

As for `CCS(=O)(=O)c1cc(C(C#N)C(C)C)cnc1-c1nc2cc(C(F)(F)F)ncc2n1C` (stereo not drawn) [Compound P10, 2-[5-ethylsulfonyl-6-[3-methyl-6-(trifluoromethyl)imidazo[4,5-c]pyridin-2-yl]-3-pyridyl]-3-methyl-butanenitrile], the mortality at 200 ppm in data set [5] is at least 80%. The percent effect (mortality or growth inhibition) at 200 ppm in data set [4] and in data set [2] was at least 80% in each case. In data set [3], this compound yielded a mortality at 24 ppm of at least 80%.

`CCS(=O)(=O)c1cc(C(C)(C)C#N)ccc1-c1nc2cc(C(F)(F)F)nnc2n1C` [Compound P12, 2-[3-ethylsulfonyl-4-[7-methyl-3-(trifluoromethyl)imidazo[4,5-c]pyridazin-6-yl]phenyl]-2-methyl-propanenitrile]: the mortality at 200 ppm in data set [5] and in data set [6] was at least 80% throughout. In addition, the percent effect (mortality or growth inhibition) at 200 ppm in data set [4], in data set [1] and in data set [2] was at least 80% throughout. In data set [3], this compound yielded a mortality at 24 ppm of at least 80%.

For `CCS(=O)(=O)c1cc(C(C)(C)C#N)cnc1-c1nc2cc(C(F)(F)F)ncc2n1C` [Compound P5, 2-[5-ethylsulfonyl-6-[3-methyl-6-(trifluoromethyl)imidazo[4,5-c]pyridin-2-yl]-3-pyridyl]-2-methyl-propanenitrile], the mortality at 200 ppm in data set [5] and in data set [6] was at least 80% each time. In addition, the percent control (mortality, anti-feedant effect or growth inhibition) at 200 ppm in data set [7] was at least 80%. Besides, the percent effect (mortality or growth inhibition) at 200 ppm in data set [4], in data set [1] and in data set [2] was at least 80% each time. Besides, the mortality at 24 ppm in data set [3] is at least 80%.

In turn, `CCC(C#N)c1cnc(-c2nc3cc(C(F)(F)F)ncc3n2C)c(S(=O)(=O)CC)c1` (stereo not drawn) [Compound P4, 2-[5-ethylsulfonyl-6-[3-methyl-6-(trifluoromethyl)imidazo[4,5-c]pyridin-2-yl]-3-pyridyl]butanenitrile] gave a mortality at 200 ppm in data set [5] of at least 80%. Further, the percent effect (mortality or growth inhibition) at 200 ppm in data set [4] and in data set [2] was at least 80% each time.

Turning to `CCSc1cc(C(C)(C)C#N)ccc1-c1nc2cc(C(F)(F)F)ncc2n1C` [Compound P16, 2-[3-ethylsulfanyl-4-[3-methyl-6-(trifluoromethyl)imidazo[4,5-c]pyridin-2-yl]phenyl]-2-methyl-propanenitrile], the percent effect (mortality or growth inhibition) at 200 ppm in data set [4] and in data set [1] was at least 80% each time.

In turn, `CCS(=O)(=O)c1cc(C(F)(F)C#N)cnc1-c1nc2cc(C(F)(F)F)ncc2n1C` [Compound P15, 2-[5-ethylsulfonyl-6-[3-methyl-6-(trifluoromethyl)imidazo[4,5-c]pyridin-2-yl]-3-pyridyl]-2,2-difluoro-acetonitrile] showed a mortality at 200 ppm in data set [5] of at least 80%. Moreover, the percent effect (mortality or growth inhibition) at 200 ppm in data set [4] and in data set [1] was at least 80% in each case. The compound further yielded a mortality at 24 ppm in data set [3] of at least 80%.

With `CCS(=O)(=O)c1cc(C(C)C#N)cnc1-c1nc2cc(C(F)(F)F)ncc2n1C` (stereo not drawn) [Compound P6, 2-[5-ethylsulfonyl-6-[3-methyl-6-(trifluoromethyl)imidazo[4,5-c]pyridin-2-yl]-3-pyridyl]propanenitrile], the percent effect (mortality or growth inhibition) at 200 ppm in data set [4] and in data set [1] was at least 80% each time. Further, the mortality at 24 ppm in data set [3] was at least 80%.

`CCS(=O)(=O)c1cc(C(C)(F)C#N)cnc1-c1nc2cc(C(F)(F)F)ncc2n1C` (stereo not drawn) [Compound P18, 2-[5-ethylsulfonyl-6-[3-methyl-6-(trifluoromethyl)imidazo[4,5-c]pyridin-2-yl]-3-pyridyl]-2-fluoro-propanenitrile] showed a melting point of 202 to 204 °C.

In the case of `CCS(=O)(=O)c1cc(C(C)(C#N)C#N)cnc1-c1nc2cc(C(F)(F)F)ncc2n1C` [Compound P1, 2-[5-ethylsulfonyl-6-[3-methyl-6-(trifluoromethyl)imidazo[4,5-c]pyridin-2-yl]-3-pyridyl]-2-methyl-propanedinitrile], the melting point was 222 to 223 °C.

On to `CCSc1cc(C(C)(C)C#N)ccc1-c1nc2cc(C(F)(F)F)nnc2n1C` [Compound P11, 2-[3-ethylsulfanyl-4-[7-methyl-3-(trifluoromethyl)imidazo[4,5-c]pyridazin-6-yl]phenyl]-2-methyl-propanenitrile], for which the percent effect (mortality or growth inhibition) at 200 ppm in data set [4] and in data set [1] was at least 80% throughout. In data set [6], this compound gave a mortality at 200 ppm of at least 80%.
